Measured values as given in patent publication US4512986A, “Progrestationally active steroids” (priority 1983, dated 1985).
“And” between values parts separate entries of the source, which are not always exact repeats. Equal values may be shown once. “Also recorded” adds a separate entry of the source.

Key:
[1] = target: T1, Cytosol Androgen Receptor of the Castrate Adult Rat Ventral Prostate (Rattus norvegicus, UniProt P15207); test: Relative binding affinity for androgen receptor (competition with 3H-dihydrotestosterone); set-up: species or system rat (Charles River CD)
T1 construct: Several ventral prostate glands pooled for each assay; tissue Charles River (animals, strain CD); host or cells: ventral prostate cytosol of castrated adult male rats
T1 sequence (P15207 1-902): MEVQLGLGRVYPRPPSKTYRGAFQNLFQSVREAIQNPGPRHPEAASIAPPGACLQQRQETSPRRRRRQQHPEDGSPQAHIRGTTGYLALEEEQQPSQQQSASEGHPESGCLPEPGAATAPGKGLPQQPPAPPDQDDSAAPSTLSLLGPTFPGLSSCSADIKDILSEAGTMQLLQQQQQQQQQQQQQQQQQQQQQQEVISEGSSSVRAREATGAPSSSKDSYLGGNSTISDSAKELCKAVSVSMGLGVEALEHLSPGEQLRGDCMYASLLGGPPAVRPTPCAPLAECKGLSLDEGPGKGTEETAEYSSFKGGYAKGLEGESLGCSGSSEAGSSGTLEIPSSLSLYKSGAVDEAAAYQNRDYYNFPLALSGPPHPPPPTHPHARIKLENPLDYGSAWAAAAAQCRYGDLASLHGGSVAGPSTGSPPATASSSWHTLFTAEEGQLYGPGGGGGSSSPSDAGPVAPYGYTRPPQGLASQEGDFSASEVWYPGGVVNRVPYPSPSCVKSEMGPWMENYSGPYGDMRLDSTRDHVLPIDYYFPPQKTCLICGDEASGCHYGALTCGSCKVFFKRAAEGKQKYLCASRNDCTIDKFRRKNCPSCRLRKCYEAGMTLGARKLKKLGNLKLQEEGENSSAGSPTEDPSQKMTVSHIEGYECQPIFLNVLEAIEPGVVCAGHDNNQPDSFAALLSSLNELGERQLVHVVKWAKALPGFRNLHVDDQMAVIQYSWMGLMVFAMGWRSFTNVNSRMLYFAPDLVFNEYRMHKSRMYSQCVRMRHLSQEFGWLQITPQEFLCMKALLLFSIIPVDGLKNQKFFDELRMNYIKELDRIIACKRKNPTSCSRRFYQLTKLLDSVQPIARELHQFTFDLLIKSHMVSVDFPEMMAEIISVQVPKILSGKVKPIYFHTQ
Procedure: The specific conditions, reagents, etc. used to derive the data from Table 2 are as follows:
Animal Species. Adult male rat (Charles River CD).
Pretreatment. Castration 17-24 hour prior to sacrifice.
Tissue. Ventral prostate. Amount of tissue: 0.4 g/rat. Several ventral prostate glands pooled for each assay.
Buffer. 0.05M Tris HCl, 0.05M Trisbase; 1 mM EDTA; 0.15 mM Dithiothreitol.
Homogenization. Three five-second bursts with 30 second cooling periods between bursts using Brinkman Polytron Pt. 10 (3.5 setting).
Temperature. 0°-4° C. all steps.
Centrifugation. 45,000 rpm for 1 hr, 50 Ti rotor, Beckman L8-80 ultracentrifuge.
Radiolabel. 1,2-^3 H-Dihydrotesterone-25,00 cpm/0.1 ml.
Amounts of Addition. 0.1 ml cytosol, 0.1 ml ^3 H-dihydrotestosterone, 0.1 ml test compound, 0.3 ml buffer.
Incubation. 16-18 hours at 0°-4° C.
Concentrations. 1×10^-10 M to 1×10^-5 (7 concentrations).
Method. Charcoal adsorption method used to remove unbound radioactivity. Five-tenths ml dextran-coated charcoal (0.5% Norit A and 0.05% dextran T-70) added to all except total radioactivity tubes (0.5 ml buffer added), tubes vortexed […], allowed to sit 10 min and centrifuged 10 min at 2000 rpm in Beckman TJ-6 centrifuge at 0°-4° C.

[2] = test system: uterine endometrium of estrone-primed immature rabbits; test: Clauberg assay (progestational activity, McPhail); format: in vivo, rabbit (New Zealand White); details: for McPhail Index (0-4) (X ± S.D.): 0 none, 4 maximal
[3] = test system: estrous cycle of rats; test: Suppression of estrous cycles in rats; format: in vivo, rat; details: sc, 10 days
Procedure: A control group was treated in parallel with 0.2 ml peanut oil per day. Treatment commenced at metestrus and vaginal smears were taken each morning during the 10-day treatment period and for 16 to 18 days thereafter.

SMILES: C#C[C@]1(C(C)=O)CC[C@H]2[C@@H]3CCC4=CC(=O)CC[C@]4(C)[C@H]3CC[C@@]21C [17α-Ethynylprogesterone, 17α-ethynylprogesterone]
- RBA ([1]; 16-18 hours at 0°-4° C., 5α-dihydrotestosterone = 100): 0.09%
- androgen receptor binding affinity / androgenicity, in words ([1]; male rat androgenic receptors): extremely low binding affinity for male rat androgenic receptors
- progestational potency relative to subcutaneous progesterone, in words ([2]; compound given orally, progesterone sc): progestational activity equivalent to subcutaneous progesterone
- progestational potency relative to progesterone (sc) ([2]; compound given sc): 13 times
- Uterine Weight (X ± S.D.) ([2]; oral, 10 μg/rabbit daily): 0.94 ± 0.09 g
- McPhail Index (0-4) (X ± S.D.) ([2]; oral, 10 μg/rabbit daily): 0.08 ± 0.11
- Uterine Weight (X ± S.D.) ([2]; oral, 20 μg/rabbit daily): 0.98 ± 0.18 g
- McPhail Index (0-4) (X ± S.D.) ([2]; oral, 20 μg/rabbit daily): 0.04 ± 0.06
- Uterine Weight (X ± S.D.) ([2]; oral, 50 μg/rabbit daily): 0.86 ± 0.02 g
- McPhail Index (0-4) (X ± S.D.) ([2]; oral, 50 μg/rabbit daily): 0.00 ± 0.00
- Uterine Weight (X ± S.D.) ([2]; oral, 100 μg/rabbit daily): 1.79 ± 0.63 g and 1.13 ± 0.24 g
- progestational response, in words ([2]; oral, 100 μg/rabbit/day): inactive; also recorded: near the oral threshold dose
- Uterine Weight (X ± S.D.) ([2]; oral, 200 μg/rabbit daily): 1.67 ± 0.33 g
- McPhail Index (0-4) (X ± S.D.) ([2]; oral, 200 μg/rabbit daily): 1.40 ± 1.50
- Uterine Weight (X ± S.D.) ([2]; oral, 400 μg/rabbit daily): 1.70 ± 0.50 g
- McPhail Index (0-4) (X ± S.D.) ([2]; oral, 400 μg/rabbit daily): 1.80 ± 1.70
- progestational response, in words ([2]; oral, 200 and 400 μg/rabbit/day): partial progestational responses
- Uterine Weight (X ± S.D.) ([2]; sc, 2.5 μg/rabbit daily): 0.90 ± 0.06 g
- McPhail Index (0-4) (X ± S.D.) ([2]; sc, 2.5 μg/rabbit daily): 0.17 ± 0.23
- progestational response, in words ([2]; sc, 2.5 μg/rabbit/day): inactive
- Uterine Weight (X ± S.D.) ([2]; sc, 5 μg/rabbit daily): 1.63 ± 0.45 g
- McPhail Index (0-4) (X ± S.D.) ([2]; sc, 5 μg/rabbit daily): 1.50 ± 0.54
- progestational response, in words ([2]; sc, 5 μg/rabbit/day): partial progestational response
- Uterine Weight (X ± S.D.) ([2]; sc, 10 μg/rabbit daily): 3.23 ± 0.83 g
- McPhail Index (0-4) (X ± S.D.) ([2]; sc, 10 μg/rabbit daily): 3.83 ± 0.12
- Uterine Weight (X ± S.D.) ([2]; sc, 20 μg/rabbit daily): 4.41 ± 0.33 g
- McPhail Index (0-4) (X ± S.D.) ([2]; sc, 20 μg/rabbit daily): 4.00 ± 0.00
- Uterine Weight (X ± S.D.) ([2]; sc, 50 μg/rabbit daily): 5.54 ± 0.18 g
- McPhail Index (0-4) (X ± S.D.) ([2]; sc, 50 μg/rabbit daily): 4.0 ± 0.00
- Uterine Weight (X ± S.D.) ([2]; sc, 100 μg/rabbit daily): 4.19 ± 0.22 g
- McPhail Index (0-4) (X ± S.D.) ([2]; sc, 100 μg/rabbit daily): 4.0 ± 0.00
- Uterine Weight (X ± S.D.) ([2]; sc, 200 μg/rabbit daily): 4.99 ± 0.89 g
- McPhail Index (0-4) (X ± S.D.) ([2]; sc, 200 μg/rabbit daily): 4.0 ± 0.00
- Uterine Weight (X ± S.D.) ([2]; sc, 400 μg/rabbit daily): 5.90 ± 1.75 g
- McPhail Index (0-4) (X ± S.D.) ([2]; sc, 400 μg/rabbit daily): 4.0 ± 0.00
- progestational response, in words ([2]; sc, 10 and 20 μg/rabbit/day): maximal progestational responses
- progestational response, in words ([2]; sc, 50, 100, 200 and 400 μg/rabbit/day): full progestational responses
- estrous cycle during treatment, in words ([3]; 50 μg/day): continued regular four-day cycles during treatment
- estrous cycle during treatment, in words ([3]; 100 μg/day): estrous cycles were disrupted; also recorded: some degree of follicular development occurred, but that ovulation was inhibited during treatment
- estrous cycle during treatment, in words ([3]; 250 μg/day): estrous cycles were disrupted
- estrous cycle during treatment, in words ([3]; 500 μg/day): estrous cycles were disrupted; also recorded: follicular development and ovulation were effectively suppressed
